Data published in ChEMBL document CHEMBL4411274, “Recent advances of tetrazole derivatives as potential anti-tubercular and anti-malarial agents” (Eur J Med Chem, 2019).
≈ marks a conversion by molar mass, not a printed value.

Each compound was assayed on Mycobacterium kansasii (assay: Antibacterial activity against Mycobacterium kansasii isolate 6509/96). Conditions: not given.
Format: functional

Compound | MIC [µg/mL]
Clc1ccc(-n2nnnc2SCc2ccccc2)cc1 | 8 to 250 (≈ 26.4 to 826 µM)
c1ccc(CSc2nnnn2-c2ccccc2)cc1 | 8 to 250 (≈ 29.8 to 932 µM)
Cc1ccc(-n2nnnc2SCc2ccccc2)cc1 | 8 to 250 (≈ 28.3 to 885 µM)
C[C@]12CC[C@@H]3c4ccc(OCCCCCCCSc5nnnn5-c5ccccc5)cc4CC[C@H]3[C@@H]1CCC2=O | ≥ 500
C[C@]12CC[C@@H]3c4ccc(OCCCCCCCSc5nnnn5-c5ccc(Cl)cc5)cc4CC[C@H]3[C@@H]1CCC2=O | ≥ 500
Cc1ccc(-n2nnnc2S)cc1 | 250 to 500 (≈ 1300 to 2600 µM)
Cc1ccc(-n2nnnc2SCCCCCCCOc2ccc3c(c2)CC[C@@H]2[C@@H]3CC[C@]3(C)C(=O)CC[C@@H]23)cc1 | ≥ 500
Sc1nnnn1-c1ccc(Cl)c(Cl)c1 | 250 to 500 (≈ 1010 to 2020 µM)
C[C@]12CC[C@@H]3c4ccc(OCCCCCCCSc5nnnn5-c5ccc(Cl)c(Cl)c5)cc4CC[C@H]3[C@@H]1CCC2=O | ≥ 500
Sc1nnnn1-c1ccccc1 | 250 to 500 (≈ 1400 to 2810 µM)
Sc1nnnn1-c1ccc(Cl)cc1 | 250 to 500 (≈ 1180 to 2350 µM)

What follows are compounds tested on Plasmodium falciparum (assay: Antimalarial activity against Plasmodium falciparum K2 infected in human erythrocytes assessed as parasitemia after 48 hrs by YOYO-1 staining-based flow cytometric analysis). Conditions: K2, 48 h.
Format: functional, organism-based

Compound | IC50 [µM]
Cc1cc(NC(=O)Cn2nnc(-c3ccc(N)cc3)n2)no1 | > 10
CCCCOc1ccc(-c2nnn(CC(=O)c3ccc(Cl)cc3)n2)cc1 | > 10
COc1ccc(NC(=O)Cn2nnc(-c3ccccc3NS(=O)(=O)c3ccc(NC(C)=O)cc3)n2)cc1 | > 10
COc1ccc(NC(=O)Cn2nnc(-c3ccccc3NC(=O)c3cc(OC)cc(OC)c3)n2)cc1 | > 10
O=C(Cn1nnc(-c2ccccc2)n1)NNC(=O)c1ccco1 | > 10
CC(C(=O)N1c2ccccc2CCc2ccccc21)n1nnc(-c2ccc(N3CCOCC3)cc2)n1 (stereo not given) | > 10
Cc1cc(NC(=O)Cn2nnc(-c3ccccc3NC(=O)c3ccccc3F)n2)no1 | > 10
COc1ccc(C(=O)Nc2ccc(-c3nnn(CC(=O)Nc4cc(C)on4)n3)cc2)cc1 | > 10
CCCCOc1ccc(-c2nnn(CC(=O)Nc3c(C)ccc4ccccc34)n2)cc1 | > 10
COc1ccc(C(=O)Cn2nnc(-c3ccccc3NC(=O)c3ccncc3)n2)cc1 | > 10
COc1ccc(-c2ccc(-c3nnn(CC(=O)c4ccccc4)n3)cc2)cc1 | > 10

These compounds were tested on Plasmodium falciparum (assay: Antimalarial activity against ring-stage chloroquine-susceptible Plasmodium falciparum 3D7 preincubated for 6 hrs followed by compound wash and measured after 66 hrs by Giemsa-staining based light microscopic analysis). Conditions: not given.
Format: functional, organism-based

Compound | IC50 [µM]
C[C@@H]1CC[C@H]2[C@@H](C)C(=O)O[C@@H]3O[C@@]4(C)CC[C@@H]1[C@]32OO4 [ARTEMISININ] | 0.004
Cn1nnc(NCC2CCC3(CC2)OOC2(O3)C3CC4CC(C3)CC2C4)n1 (stereo not given) | 0.0029
C[C@H]1[C@H](OC(=O)CCC(=O)O)O[C@@H]2O[C@@]3(C)CC[C@H]4[C@H](C)CC[C@@H]1[C@@]24OO3 [ARTESUNATE] | 0.0051
C1C2CC3CC1CC(C2)C31OOC2(CCC(Nc3nnn[nH]3)CC2)O1 (stereo not given) | 0.0028

The compounds below were run on Mycobacterium avium (assay: Antibacterial activity against Mycobacterium avium CNCTC My 330/88). Conditions: not given.
Format: functional

Compound | MIC [µg/mL]
Clc1ccc(-n2nnnc2SCc2ccccc2)cc1 | 8 to 250 (≈ 26.4 to 826 µM)
c1ccc(CSc2nnnn2-c2ccccc2)cc1 | 8 to 250 (≈ 29.8 to 932 µM)
Cc1ccc(-n2nnnc2SCc2ccccc2)cc1 | 8 to 250 (≈ 28.3 to 885 µM)
C[C@]12CC[C@@H]3c4ccc(OCCCCCCCSc5nnnn5-c5ccccc5)cc4CC[C@H]3[C@@H]1CCC2=O | ≥ 500
C[C@]12CC[C@@H]3c4ccc(OCCCCCCCSc5nnnn5-c5ccc(Cl)cc5)cc4CC[C@H]3[C@@H]1CCC2=O | ≥ 500
Cc1ccc(-n2nnnc2S)cc1 | 250 to 500 (≈ 1300 to 2600 µM)
Cc1ccc(-n2nnnc2SCCCCCCCOc2ccc3c(c2)CC[C@@H]2[C@@H]3CC[C@]3(C)C(=O)CC[C@@H]23)cc1 | ≥ 500
Sc1nnnn1-c1ccc(Cl)c(Cl)c1 | 250 to 500 (≈ 1010 to 2020 µM)
C[C@]12CC[C@@H]3c4ccc(OCCCCCCCSc5nnnn5-c5ccc(Cl)c(Cl)c5)cc4CC[C@H]3[C@@H]1CCC2=O | ≥ 500
Sc1nnnn1-c1ccccc1 | 250 to 500 (≈ 1400 to 2810 µM)
Sc1nnnn1-c1ccc(Cl)cc1 | 250 to 500 (≈ 1180 to 2350 µM)

These compounds were tested on Mycobacterium kansasii (assay: Antibacterial activity against Mycobacterium kansasii CNCTC My 235/80). Conditions: not given.
Format: functional

Compound | MIC [µg/mL]
Clc1ccc(-n2nnnc2SCc2ccccc2)cc1 | 8 to 250 (≈ 26.4 to 826 µM)
c1ccc(CSc2nnnn2-c2ccccc2)cc1 | 8 to 250 (≈ 29.8 to 932 µM)
Cc1ccc(-n2nnnc2SCc2ccccc2)cc1 | 8 to 250 (≈ 28.3 to 885 µM)
C[C@]12CC[C@@H]3c4ccc(OCCCCCCCSc5nnnn5-c5ccccc5)cc4CC[C@H]3[C@@H]1CCC2=O | ≥ 500
C[C@]12CC[C@@H]3c4ccc(OCCCCCCCSc5nnnn5-c5ccc(Cl)cc5)cc4CC[C@H]3[C@@H]1CCC2=O | ≥ 500
Cc1ccc(-n2nnnc2S)cc1 | 250 to 500 (≈ 1300 to 2600 µM)
Cc1ccc(-n2nnnc2SCCCCCCCOc2ccc3c(c2)CC[C@@H]2[C@@H]3CC[C@]3(C)C(=O)CC[C@@H]23)cc1 | ≥ 500
Sc1nnnn1-c1ccc(Cl)c(Cl)c1 | 250 to 500 (≈ 1010 to 2020 µM)
C[C@]12CC[C@@H]3c4ccc(OCCCCCCCSc5nnnn5-c5ccc(Cl)c(Cl)c5)cc4CC[C@H]3[C@@H]1CCC2=O | ≥ 500
Sc1nnnn1-c1ccccc1 | 250 to 500 (≈ 1400 to 2810 µM)
Sc1nnnn1-c1ccc(Cl)cc1 | 250 to 500 (≈ 1180 to 2350 µM)

The compounds below were run on Plasmodium falciparum (assay: Antimalarial activity against ring-stage multidrug-resistant Plasmodium falciparum Dd2 preincubated for 6 hrs followed by compound wash and measured after 66 hrs by Giemsa-staining based light microscopic analysis). Conditions: not given.
Format: functional, organism-based

Compound | IC50 [µM]
C[C@@H]1CC[C@H]2[C@@H](C)C(=O)O[C@@H]3O[C@@]4(C)CC[C@@H]1[C@]32OO4 [ARTEMISININ] | 0.0025
Cn1nnc(NCC2CCC3(CC2)OOC2(O3)C3CC4CC(C3)CC2C4)n1 (stereo not given) | 0.0021
C[C@H]1[C@H](OC(=O)CCC(=O)O)O[C@@H]2O[C@@]3(C)CC[C@H]4[C@H](C)CC[C@@H]1[C@@]24OO3 [ARTESUNATE] | 0.0046
C1C2CC3CC1CC(C2)C31OOC2(CCC(Nc3nnn[nH]3)CC2)O1 (stereo not given) | 0.0025

What follows are compounds tested against T1, Cysteine protease falcipain-3 (Plasmodium falciparum, UniProt Q9NAW4) (assay: Inhibition of Plasmodium falciparum falcipain-3 preincubated for 30 mins followed by Z-Leu-Arg-AMC substrate addition and measured up to 15 mins by spectrofluorometric analysis). Conditions: not given.
T1 sequence (Q9NAW4 whole entry): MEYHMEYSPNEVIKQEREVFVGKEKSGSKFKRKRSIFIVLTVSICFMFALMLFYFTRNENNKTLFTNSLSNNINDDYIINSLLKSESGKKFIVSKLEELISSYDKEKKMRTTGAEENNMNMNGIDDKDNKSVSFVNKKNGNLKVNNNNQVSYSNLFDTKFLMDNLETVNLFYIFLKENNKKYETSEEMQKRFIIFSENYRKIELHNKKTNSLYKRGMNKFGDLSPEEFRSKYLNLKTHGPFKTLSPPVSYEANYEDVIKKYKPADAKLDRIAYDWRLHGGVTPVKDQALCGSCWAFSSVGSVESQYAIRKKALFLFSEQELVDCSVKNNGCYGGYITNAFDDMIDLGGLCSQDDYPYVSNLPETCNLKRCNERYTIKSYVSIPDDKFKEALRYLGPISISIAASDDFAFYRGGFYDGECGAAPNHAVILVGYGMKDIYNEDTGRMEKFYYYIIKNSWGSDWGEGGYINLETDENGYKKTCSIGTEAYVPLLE

Compound | IC50 [µM]
Cc1cc(NC(=O)Cn2nnc(-c3ccc(N)cc3)n2)no1 | 6.67 to 43.9
CCCCOc1ccc(-c2nnn(CC(=O)c3ccc(Cl)cc3)n2)cc1 | 6.67 to 43.9
COc1ccc(NC(=O)Cn2nnc(-c3ccccc3NS(=O)(=O)c3ccc(NC(C)=O)cc3)n2)cc1 | 6.67 to 43.9
COc1ccc(NC(=O)Cn2nnc(-c3ccccc3NC(=O)c3cc(OC)cc(OC)c3)n2)cc1 | 6.67 to 43.9
O=C(Cn1nnc(-c2ccccc2)n1)NNC(=O)c1ccco1 | 6.67 to 43.9
CC(C(=O)N1c2ccccc2CCc2ccccc21)n1nnc(-c2ccc(N3CCOCC3)cc2)n1 (stereo not given) | 6.67 to 43.9
Cc1cc(NC(=O)Cn2nnc(-c3ccccc3NC(=O)c3ccccc3F)n2)no1 | 6.67 to 43.9
COc1ccc(C(=O)Nc2ccc(-c3nnn(CC(=O)Nc4cc(C)on4)n3)cc2)cc1 | 6.67 to 43.9
CCCCOc1ccc(-c2nnn(CC(=O)Nc3c(C)ccc4ccccc34)n2)cc1 | 6.67 to 43.9
COc1ccc(C(=O)Cn2nnc(-c3ccccc3NC(=O)c3ccncc3)n2)cc1 | 6.67 to 43.9
COc1ccc(-c2ccc(-c3nnn(CC(=O)c4ccccc4)n3)cc2)cc1 | 6.67 to 43.9

The compounds below were run against T2, Falcipain 2 (Plasmodium falciparum, UniProt Q9N6S8) (assay: Inhibition of Plasmodium falciparum falcipain-2 preincubated for 30 mins followed by Z-Leu-Arg-AMC substrate addition and measured up to 15 mins by spectrofluorometric analysis). Conditions: not given.
T2 sequence (Q9N6S8 whole entry): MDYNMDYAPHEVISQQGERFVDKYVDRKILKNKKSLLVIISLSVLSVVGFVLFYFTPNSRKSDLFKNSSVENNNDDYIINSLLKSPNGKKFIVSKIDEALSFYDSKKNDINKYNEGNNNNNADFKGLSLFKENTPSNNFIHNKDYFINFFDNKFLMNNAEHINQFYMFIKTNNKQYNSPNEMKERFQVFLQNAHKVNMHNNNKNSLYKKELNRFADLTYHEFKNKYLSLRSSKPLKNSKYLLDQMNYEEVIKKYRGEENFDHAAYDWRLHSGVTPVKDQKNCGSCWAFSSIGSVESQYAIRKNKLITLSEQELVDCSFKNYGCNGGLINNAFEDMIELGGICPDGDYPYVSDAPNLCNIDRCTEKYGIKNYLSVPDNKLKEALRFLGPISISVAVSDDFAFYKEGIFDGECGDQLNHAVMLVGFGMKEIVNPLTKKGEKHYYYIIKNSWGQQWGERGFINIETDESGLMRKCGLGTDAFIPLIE

Compound | IC50 [µM]
Cc1cc(NC(=O)Cn2nnc(-c3ccc(N)cc3)n2)no1 | 6.67 to 43.9
CCCCOc1ccc(-c2nnn(CC(=O)c3ccc(Cl)cc3)n2)cc1 | 6.67 to 43.9
COc1ccc(NC(=O)Cn2nnc(-c3ccccc3NS(=O)(=O)c3ccc(NC(C)=O)cc3)n2)cc1 | 6.67 to 43.9
COc1ccc(NC(=O)Cn2nnc(-c3ccccc3NC(=O)c3cc(OC)cc(OC)c3)n2)cc1 | 6.67 to 43.9
O=C(Cn1nnc(-c2ccccc2)n1)NNC(=O)c1ccco1 | 6.67 to 43.9
CC(C(=O)N1c2ccccc2CCc2ccccc21)n1nnc(-c2ccc(N3CCOCC3)cc2)n1 (stereo not given) | 6.67 to 43.9
Cc1cc(NC(=O)Cn2nnc(-c3ccccc3NC(=O)c3ccccc3F)n2)no1 | 6.67 to 43.9
COc1ccc(C(=O)Nc2ccc(-c3nnn(CC(=O)Nc4cc(C)on4)n3)cc2)cc1 | 6.67 to 43.9
CCCCOc1ccc(-c2nnn(CC(=O)Nc3c(C)ccc4ccccc34)n2)cc1 | 6.67 to 43.9
COc1ccc(C(=O)Cn2nnc(-c3ccccc3NC(=O)c3ccncc3)n2)cc1 | 6.67 to 43.9
COc1ccc(-c2ccc(-c3nnn(CC(=O)c4ccccc4)n3)cc2)cc1 | 6.67 to 43.9

These compounds were tested on Mycobacterium tuberculosis (assay: Antibacterial activity against Mycobacterium tuberculosis CNCTC My 331/88). Conditions: not given.
Format: functional

Compound | MIC [µg/mL]
Clc1ccc(-n2nnnc2SCc2ccccc2)cc1 | 8 to 250 (≈ 26.4 to 826 µM)
c1ccc(CSc2nnnn2-c2ccccc2)cc1 | 8 to 250 (≈ 29.8 to 932 µM)
Cc1ccc(-n2nnnc2SCc2ccccc2)cc1 | 8 to 250 (≈ 28.3 to 885 µM)
C[C@]12CC[C@@H]3c4ccc(OCCCCCCCSc5nnnn5-c5ccccc5)cc4CC[C@H]3[C@@H]1CCC2=O | ≥ 500
C[C@]12CC[C@@H]3c4ccc(OCCCCCCCSc5nnnn5-c5ccc(Cl)cc5)cc4CC[C@H]3[C@@H]1CCC2=O | ≥ 500
Cc1ccc(-n2nnnc2S)cc1 | 250 to 500 (≈ 1300 to 2600 µM)
Cc1ccc(-n2nnnc2SCCCCCCCOc2ccc3c(c2)CC[C@@H]2[C@@H]3CC[C@]3(C)C(=O)CC[C@@H]23)cc1 | ≥ 500
Sc1nnnn1-c1ccc(Cl)c(Cl)c1 | 250 to 500 (≈ 1010 to 2020 µM)
C[C@]12CC[C@@H]3c4ccc(OCCCCCCCSc5nnnn5-c5ccc(Cl)c(Cl)c5)cc4CC[C@H]3[C@@H]1CCC2=O | ≥ 500
Sc1nnnn1-c1ccccc1 | 250 to 500 (≈ 1400 to 2810 µM)
Sc1nnnn1-c1ccc(Cl)cc1 | 250 to 500 (≈ 1180 to 2350 µM)
